From patent US4617336A, “Acylated calixarene stabilizers” (Ciba-Geigy Corporation, priority 1985, dated 1986)

Columns and labels:
[1] = FS/BL (fluorescent sunlight/black light) exposure of polypropylene films (5 mil); settings: failure = 0.5 carbonyl absorbance
Source text: The samples are exposed in a fluorescent sunlight/black light chamber until failure. Failure is taken as the hours required to reach 0.5 carbonyl absorbance by infrared spectroscopy on the exposed films.

[2] = Oven ageing of stabilized polypropylene plaques (25 mil) at 150° C., oxidative stability
Experimental: Unstabilized polypropylene powder (Hercules Profax 6501) is thoroughly blended with the indicated amount of additive. The blended materials are then milled on a two roll mill at 182° C. for 5 minutes, after which time the stabilized polypropylene is sheeted from the mill and allowed to cool. The milled polypropylene is then cut into pieces and compression molded on a hydraulic press at 220° C. and 175 psi (1.2×10^6 Pa) into 25 mil thick plaques. The plaques are then exposed to air in a force draft oven maintained at 150° C. The plaques are considered to have failed on showing the first signs of decomposition (e.g. cracking or brown edges).

[3] = Solubility in hydrocarbon solvents; assay type: physicochemical; settings: 24° to 25° C.
Experimental: This example provides solubility data for the instant stabilizers in two hydrocarbon solvents. The indicated stabilizer is dissolved in the minimal amount of solvent at 24° to 25° C. The value range reported is percent by weight of additive in total weight of solution.

[4] = Oxidation stability of polypropylene stretched tapes (2 mil) in forced draft oven at 115° C.; settings: additive 0.2%
Experimental: The oxidation stability of milled polypropylene samples (prepared as in Examples 9 and 10), containing the indicated stabilizers, is measured on stretched tapes of 2 mil thickness on exposure to air in a forced draft oven at 115° C.

[5] = Angle to break of oven aged ABS plaques (ASTM D747); parameters: key: NB: No break; settings: additive 0.225%
Experimental: This example illustrates the stabilization of acrylonitrile-butadiene-styrene (ABS) copolymer by the compounds of this invention. The testing procedure is as follows:
The antioxidant is dissolved in toluene and emulsified in water using Triton X-100 (Rohm & Haas) as a surfactant. The resultant emulsion is mixed well with ABS copolymer containing 40% butadiene (rubber). Steam coagulation of the emulsion/latex mixture yields 40% rubber stabilized ABS crumbs which are then dried at 80° C. for 30 minutes in a fluidized bed drier. The resultant crumbs are combined with styrene-acrylonitrile pellets on a two roll mill for six minutes. The resultant 15% rubber containing ABS milled sheet is compression molded at 400° F. into 60 mil plaques which are die cut into 1"×3" specimens. The sample plaques are then oven aged at 150° C. and the angle to break is monitored (ASTM D747). This consists of applying a set load through an angle with one stationary point and one moveable point, flexing the sample. The angle is monitored for several aging periods until the specimen breaks.

[6] = additive 0.2%, no co-stabilizer

## Para-[2-(carbododecyloxy)ethyl]hydroxycalix[n]arene [Example 3]
[1]; additive 0.2% by weight
  FS/BL Test Results (Hours to Failure): 230 h
[2]; additive 0.1% with 0.3% DLTDP
  Oxidative Stability Time to Failure: 420 h
[2]; [6]
  Oxidative Stability Time to Failure: 150 h
[3]
  wt/wt % Solubility in Toluene: > 50 wt/wt %

## Para-carbooctadecyloxy-hydroxycalix(n)arene [Example 7]
[4]
  Oxidative Stability Time to Failure: 290 h
[2]; additive 0.1% with 0.3% DSTDP
  Oxidative Stability Time to Failure: 250 h
[2]; [6]
  Oxidative Stability Time to Failure: 30 h

## Para-carbobutoxy-hydroxycalix(n)arene [Example 8]
[2]; additive 0.1% with 0.3% DSTDP
  Oxidative Stability Time to Failure: 210 h
[2]; [6]
  Oxidative Stability Time to Failure: 20 h

## Para-carbododecyloxyhydroxy-calix(n)arene [Example 5]
[2]; additive 0.1% with 0.3% DSTDP
  Oxidative Stability Time to Failure: 210 h
[2]; [6]
  Oxidative Stability Time to Failure: 30 h

## Para-[2(carbooctadecyloxy)ethyl]hydroxycalix[n]arene [Example 4]
[1]; additive 0.3% by weight
  FS/BL Test Results (Hours to Failure): 240 h
[2]; additive 0.1% with 0.3% DLTDP
  Oxidative Stability Time to Failure: 340 h
[2]; additive 0.3%, no co-stabilizer
  Oxidative Stability Time to Failure: 150 h
[5]; 0 Min at 150° C.
  Angle to Break (Oven Aged Samples): NB
[5]; 30 Min at 150° C.
  Angle to Break (Oven Aged Samples): NB
[5]; 45 Min at 150° C.
  Angle to Break (Oven Aged Samples): NB
[5]; 60 Min at 150° C.
  Angle to Break (Oven Aged Samples): NB
[5]; 120 Min at 150° C.
  Angle to Break (Oven Aged Samples): 55
